Measurements: paper PMC8445441, “Elucidating the mechanism by which synthetic helper peptides sensitize Pseudomonas aeruginosa to multiple antibiotics” (PLoS Pathogens, 2021)
Like-named read-outs stand apart in the source and are kept apart here.

Key:
P. aeruginosa AUMC-Pa-3 = experiment: microbe, parasite or virus in culture
Summary of the method: (§1)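 Growth inhibition was scored by eye after an 18 h, 37 °C incubation of drug-bacteria mixtures in Mueller-Hinton broth. Inoculum suspension held approximately 1 × 10^6 CFU/mL before 1:1 mixing.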

P. aeruginosa AUMC-Pa-4 = experiment: microbe, parasite or virus in culture
Summary of the method: as §1

P. aeruginosa AUMC-Pa-5 = experiment: microbe, parasite or virus in culture; settings: strain AUMC-Pa-5
Summary of the method: as §1

P. aeruginosa AUMC-Pa-6 = experiment: microbe, parasite or virus in culture; settings: strain AUMC-Pa-6
Summary of the method: as §1

P. aeruginosa PAO1 = experiment: microbe, parasite or virus in culture
Summary of the method: as §1

P. aeruginosa ATCC27853 = experiment: microbe, parasite or virus in culture; parameters: MICa: MIC of the antibiotic / MICac: MIC of the antibiotic in the combination: unit not given beside the values
Summary of the method: as §1

P. aeruginosa NR-31040 = experiment: microbe, parasite or virus in culture; parameters: MICa: MIC of the antibiotic / MICac: MIC of the antibiotic in the combination: unit not given beside the values; settings: strain NR-31040
Summary of the method: as §1

P. aeruginosa NR-31041 = experiment: microbe, parasite or virus in culture; parameters: MICa: MIC of the antibiotic / MICac: MIC of the antibiotic in the combination: unit not given beside the values
Summary of the method: as §1

P. aeruginosa PA14 = experiment: microbe, parasite or virus in culture; parameters: MICa: MIC of the antibiotic / MICac: MIC of the antibiotic in the combination: unit not given beside the values
Summary of the method: as §1

P. aeruginosa PAK = experiment: microbe, parasite or virus in culture; parameters: MICa: MIC of the antibiotic / MICac: MIC of the antibiotic in the combination: unit not given beside the values
Summary of the method: as §1

P. aeruginosa HM-214 = settings: strain HM-214; antibiotic + D-11 (MICb/MICbc 128/4)
Summary of the method: as §1

P. aeruginosa AUMC-Pa-1 = settings: strain AUMC-Pa-1; antibiotic + D-11 (MICb/MICbc 128/4)
Summary of the method: as §1

P. aeruginosa AUMC-Pa-2 = settings: strain AUMC-Pa-2; antibiotic + D-11 (MICb/MICbc 64/4)
Summary of the method: as §1

[1] = test system: clinical P. aeruginosa isolates; experiment: microbe, parasite or virus in culture; settings: Pseudomonas aeruginosa, 18 h
Summary of the method: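 Broth microdilution per CLSI in MHB, two-fold drug dilutions mixed with an equal volume of bacteria at about 1 × 10^6 CFU/mL. After 18 h at 37 °C, MIC taken as the lowest concentration with no visible growth; run in triplicate.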

[2] = antibiotic + D-11 (MICb/MICbc 64/4)
[3] = antibiotic alone, unit not given
[4] = with D-11 at MICbc 4, unit not given

Q: With CO[C@H]1[C@H](OC(=O)c2ccc(C)[nH]2)[C@H](O)[C@@H](Oc2ccc3c(O)c(NC(=O)c4c[nH]c(C(=O)Nc5c(O)c6ccc(O[C@H]7OC(C)(C)[C@@H](OC)[C@H](OC(=O)c8ccc(C)[nH]8)[C@@H]7O)c(C)c6oc5=O)c4C)c(=O)oc3c2C)OC1(C)C [Coumermycin A1] as the molecule, how does the MIC (P. aeruginosa AUMC-Pa-3; Pseudomonas aeruginosa, AUMCPA3, 18 h, read-out: MICa: MIC of the antibiotic) read?
A: Its MIC is 8 µM.

Q: What about the FICI (P. aeruginosa AUMC-Pa-3; strain AUMC-Pa-3, antibiotic + D-11 (MICb/MICbc 128/4)) of the same molecule?
A: Its FICI is 0.035.

Q: What about the “MICac: MIC of the antibiotic in the combination” value (from here on “MICac: MIC of the antibiotic”) (P. aeruginosa AUMC-Pa-3; strain AUMC-Pa-3, with D-11 at MICbc 4, unit not given) of the same molecule?
A: The value was 0.031.

Q: What about the MIC (P. aeruginosa AUMC-Pa-4; Pseudomonas aeruginosa, AUMCPA4, 18 h, read-out: MICa: MIC of the antibiotic) of the same molecule?
A: The MIC was 8 µM.

Q: What about the FICI (P. aeruginosa AUMC-Pa-4; strain AUMC-Pa-4, antibiotic + D-11 (MICb/MICbc 128/4)) of the same molecule?
A: The FICI was 0.094.

Q: And the “MICac: MIC of the antibiotic” value (P. aeruginosa AUMC-Pa-4; strain AUMC-Pa-4, with D-11 at MICbc 4, unit not given)?
A: Its value is 0.5.

Q: And the FICI (P. aeruginosa AUMC-Pa-5; [2])?
A: The FICI was 0.313.

Q: What about the “MICa: MIC of the antibiotic” value (P. aeruginosa AUMC-Pa-5; [3]) of the same molecule?
A: The value was 8.

Q: And the “MICac: MIC of the antibiotic” value (P. aeruginosa AUMC-Pa-5; [4])?
A: Its value is 2.

Q: What about the FICI (P. aeruginosa AUMC-Pa-6; [2]) of the same molecule?
A: The FICI was 0.313.

Q: And the “MICa: MIC of the antibiotic” value (P. aeruginosa AUMC-Pa-6; [3])?
A: Its value is 8.

Q: What about the “MICac: MIC of the antibiotic” value (P. aeruginosa AUMC-Pa-6; [4]) of the same molecule?
A: Its value is 2.

Q: And the “reduction of the MICs” value (P. aeruginosa PAO1; PAO1, in the presence of 4 μM of D-11)?
A: The value was 512 fold.

Q: And the MIC (P. aeruginosa PAO1; Pseudomonas aeruginosa, PAO1, 18 h, read-out: MICa: the MIC of antibiotics)?
A: The MIC was 8 µM.

Q: What about the FICI (P. aeruginosa PAO1; S3 Table, PAO1, antibiotic + 2 μM D-11) of the same molecule?
A: Its FICI is 0.078.

Q: And the “MICac: the MIC for the antibiotic in the combination” value (P. aeruginosa PAO1; S3 Table, PAO1, with 2 μM D-11)?
A: Its value is 0.125 µM.

Q: And the “MICac: the MIC for the antibiotic in the combination” value (P. aeruginosa PAO1; S3 Table, PAO1, with 4 μM D-11)?
A: Its value is 0.01562 µM.

Q: And the “MICa: the MIC of antibiotics” value (P. aeruginosa PAO1; S3 Table, antibiotic alone, PAO1)?
A: Its value is 8 µM.

Q: What about the MIC (P. aeruginosa ATCC27853; Pseudomonas aeruginosa, ATCC27853, 18 h, read-out: MICa: MIC of the antibiotic) of the same molecule?
A: Its MIC is 8 µM.

Q: And the FICI (P. aeruginosa ATCC27853; strain ATCC27853, antibiotic + D-11 (MICb/MICbc 32/4))?
A: Its FICI is 0.156.

Q: And the “MICac: MIC of the antibiotic” value (P. aeruginosa ATCC27853; strain ATCC27853, with D-11 at MICbc 4, unit not given)?
A: Its value is 0.5.

Q: And the FICI (P. aeruginosa NR-31040; antibiotic + D-11 (MICb/MICbc 128/4))?
A: Its FICI is 0.281.

Q: And the “MICa: MIC of the antibiotic” value (P. aeruginosa NR-31040; [3])?
A: Its value is 8.

Q: And the “MICac: MIC of the antibiotic” value (P. aeruginosa NR-31040; [4])?
A: The value was 2.

Q: And the MIC (P. aeruginosa NR-31041; Pseudomonas aeruginosa, NR31041, 18 h, read-out: MICa: MIC of the antibiotic)?
A: The MIC was 8 µM.

Q: And the FICI (P. aeruginosa NR-31041; strain NR-31041, antibiotic + D-11 (MICb/MICbc 64/4))?
A: Its FICI is 0.078.

Q: What about the “MICac: MIC of the antibiotic” value (P. aeruginosa NR-31041; strain NR-31041, with D-11 at MICbc 4, unit not given) of the same molecule?
A: Its value is 0.125.

Q: And the MIC (P. aeruginosa PA14; Pseudomonas aeruginosa, PA14, 18 h, read-out: MICa: MIC of the antibiotic)?
A: Its MIC is 8 µM.

Q: And the FICI (P. aeruginosa PA14; strain PA14, antibiotic + D-11 (MICb/MICbc 128/4))?
A: The FICI was 0.094.

Q: What about the “MICac: MIC of the antibiotic” value (P. aeruginosa PA14; strain PA14, with D-11 at MICbc 4, unit not given) of the same molecule?
A: Its value is 0.5.

Q: What about the MIC (P. aeruginosa PAK; Pseudomonas aeruginosa, 18 h, read-out: MICa: MIC of the antibiotic) of the same molecule?
A: The MIC was 8 µM.

Q: And the FICI (P. aeruginosa PAK; strain PAK, antibiotic + D-11 (MICb/MICbc 64/4))?
A: Its FICI is 0.125.

Q: What about the “MICac: MIC of the antibiotic” value (P. aeruginosa PAK; strain PAK, with D-11 at MICbc 4, unit not given) of the same molecule?
A: Its value is 0.5.

Q: And the FICI (P. aeruginosa HM-214)?
A: The FICI was 0.281.

Q: And the FICI (P. aeruginosa AUMC-Pa-1)?
A: Its FICI is 0.039.

Q: What about the FICI (P. aeruginosa AUMC-Pa-2) of the same molecule?
A: Its FICI is 0.094.

Q: And the MIC ([1]; read-out: Antibiotic sensibility (MIC) of clinical P. aeruginosa isolate AUMC-Pa-1)?
A: The MIC was 8 µM.

Q: What about the MIC ([1]; read-out: Antibiotic sensibility (MIC) of clinical P. aeruginosa isolate AUMC-Pa-2) of the same molecule?
A: The MIC was 8 µM.

Q: What about the MIC ([1]; read-out: Antibiotic sensibility (MIC) of clinical P. aeruginosa isolate AUMC-Pa-3) of the same molecule?
A: Its MIC is 8 µM.

Q: And the MIC ([1]; read-out: Antibiotic sensibility (MIC) of clinical P. aeruginosa isolate AUMC-Pa-4)?
A: The MIC was 8 µM.

Q: What about the MIC ([1]; read-out: Antibiotic sensibility (MIC) of clinical P. aeruginosa isolate AUMC-Pa-5) of the same molecule?
A: The MIC was 8 µM.

Q: What about the MIC ([1]; read-out: Antibiotic sensibility (MIC) of clinical P. aeruginosa isolate AUMC-Pa-6) of the same molecule?
A: Its MIC is 8 µM.

Q: What about the MIC ([1]; read-out: Antibiotic sensibility (MIC) of clinical P. aeruginosa isolate HM-214) of the same molecule?
A: Its MIC is 8 µM.

Q: What about the MIC ([1]; read-out: Antibiotic sensibility (MIC) of clinical P. aeruginosa isolate NR-31040) of the same molecule?
A: Its MIC is 8 µM.

Q: What about the MIC ([1]; read-out: Antibiotic sensibility (MIC) of clinical P. aeruginosa isolate NR-31041) of the same molecule?
A: Its MIC is 8 µM.
